# Measured values reported in article PMC8838037, “Design, Synthesis and Molecular Docking Study of Novel 3-Phenyl-β-Alanine-Based Oxadiazole Analogues as Potent Carbonic Anhydrase II Inhibitors” (Molecules, 2022).
# Target: T1, bovine erythrocyte CA-II (Bos taurus, UniProt P00921)
# T1 construct: purified bovine erythrocyte CA-II; from tissue; host or cells: bovine erythrocytes
# Experiment: Carbonic anhydrase II inhibition assay (colorimetric, 4-nitrophenyl acetate substrate)
# Format: biochemical
# Settings: for IC50: N/A = Not active; for % Inhibition: test concentration not given
# Procedure: 20 µL of tested compounds were incubated with the enzyme carbonic anhydrase II (EC 4.2.1.1) for 15 min in 96-well flat bottom plate. The rate of product formation was monitored with the addition of 20 µL of 4-NPA as substrate, prepared in ethanol at the final concentration of 0.7 mM at 25 °C for 30 min with regular intervals of 1 min, by using spectrophotometer (xMark^TM Microplate, Bio-Rad, Hercules, CA, USA). HEPES-tris was used as a buffer for the reaction at the final concentration of 20 mM at pH 7.4.
# T1 sequence (P00921 2-260): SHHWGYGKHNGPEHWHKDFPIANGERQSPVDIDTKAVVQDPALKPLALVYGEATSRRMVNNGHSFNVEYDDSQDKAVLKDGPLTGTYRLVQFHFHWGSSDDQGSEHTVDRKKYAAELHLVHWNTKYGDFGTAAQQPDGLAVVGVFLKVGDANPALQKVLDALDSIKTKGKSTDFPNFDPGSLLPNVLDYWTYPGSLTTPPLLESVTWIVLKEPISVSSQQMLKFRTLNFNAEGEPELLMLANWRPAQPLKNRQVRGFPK
Compound,IC50,% Inhibition
"COc1ccc(-c2nnc(C[C@H](NC(=O)OC(C)(C)C)c3ccccc3)o2)cc1OC [Compound 4j, Tert-Butyl (S)-(2-(5-(3,4-dimethoxyphenyl)-1,3,4-oxadiazol-2-yl)-1-phenylethyl) carbamate]",26.6 ± 1.47 µM,96.7%
"CC(C)(C)OC(=O)N[C@@H](Cc1nnc(-c2ccc(Cl)cc2)o1)c1ccccc1 [Compound 4l, Tert-Butyl (S)-(2-(5-(4-chlorophenyl)-1,3,4-oxadiazol-2-yl)-1-phenylethyl) carbamate]",53.6 ± 0.96 µM,67.6%
"Tert-Butyl(S)-(1-phenyl-2-(5-phenyl-1,3,4-oxadiazol-2-yl)ethyl) carbamate [Compound 4c]",13.8 ± 0.64 µM,95.5%
"Tert-Butyl(S)-(2-(5-(4-methoxyphenyl)-1,3,4-oxadiazol-2-yl)-1-phenylethyl) carbamate [Compound 4d]",–,29.0%

# Other lines, results leading:
IC50,% Inhibition,Compound
12.1 ± 0.86 µM,96.2%,"CC(C)(C)OC(=O)N[C@@H](Cc1nnc(-c2ccccn2)o1)c1ccccc1 [Compound 4a, Tert-Butyl (S)-(1-phenyl-2-(5-(pyridin-2-yl)-1,3,4-oxadiazol-2-yl)ethyl) carbamate]"
19.1 ± 0.88 µM,93.5%,"CC(C)(C)OC(=O)N[C@@H](Cc1nnc(-c2ccccc2O)o1)c1ccccc1 [Compound 4b, Tert-Butyl (S)-(2-(5-(2-hydroxyphenyl)-1,3,4-oxadiazol-2-yl)-1-phenylethyl) carbamate]"
18.1 ± 1.31 µM,58.0%,"CC(C)(C)OC(=O)N[C@@H](Cc1nnc(-c2ccc(O)cc2)o1)c1ccccc1 [Compound 4i, Tert-Butyl (S)-(2-(5-(4-hydroxyphenyl)-1,3,4-oxadiazol-2-yl)-1-phenylethyl) carbamate]"
22.4 ± 1.43 µM,87.8%,"COc1ccc(OC)c(-c2nnc(C[C@H](NC(=O)OC(C)(C)C)c3ccccc3)o2)c1 [Compound 4k, Tert-Butyl (S)-(2-(5-(2,5-dimethoxyphenyl)-1,3,4-oxadiazol-2-yl)-1-phenylethyl) carbamate]"
